The source of these data is ChEMBL document CHEMBL5113463, “Discovery and preclinical evaluations of JBD0131, a novel nitrodihydro-imidazooxazole anti-tuberculosis agent” (Bioorg Med Chem Lett, 2022).

Structures are written as SMILES. In brackets after ≈: the same amount, converted by molar mass. Where only a bound is given, the exact number is not on record here.

For orientation: half-life means how long it takes for the measured level to halve. As a reminder, the IC50 is the concentration that inhibits the measured activity by half. As usually defined, the MIC50 is the lowest concentration that inhibits either 50% of growth or 50% of the strains tested, depending on the study. Usually MIC90 stands for the lowest concentration that inhibits either 90% of growth or 90% of the strains tested, depending on the study. As usually defined, the MIC is the lowest concentration found to suppress growth. The clearance is the rate of elimination divided by the concentration. Higher therefore signals a high capacity for elimination. For orientation: bioavailability means dose-corrected exposure relative to a reference, in per cent. A low value points to little systemic uptake. What is called Vd is the apparent volume that relates the amount in the body to the concentration in plasma or blood. A higher Vd goes with extensive tissue distribution.

Series [1] can be described thus: Metabolic stability in human liver microsomes assessed as half life. It counts as ADME, Microsome. Background: Microsomes from liver hold many membrane-bound enzymes, among them those of drug oxidation.
Series [2] can be described thus: Metabolic stability in rat liver microsomes assessed as half life. It counts as ADME, Microsome.
A short description of series [3]: Plasma protein binding in mouse assessed as bound fraction. To be noted: read-out: PPB (converted). It counts as ADME, cell-free.
The nature of series [4]: Plasma protein binding in rat assessed as bound fraction. It counts as ADME, cell-free. Conditions: read-out: PPB (converted); call rule not given here.
The nature of series [5]: Plasma protein binding in dog assessed as bound fraction. The class given is ADME, cell-free, Canis lupus familiaris. Conditions: read-out: PPB (converted).
A short description of series [6]: Plasma protein binding in human assessed as bound fraction. It counts as ADME, cell-free. To be noted: read-out: PPB (converted).
The target in a further series is T1, Cytochrome P450 1A2 (Homo sapiens, UniProt P05177).
T1 sequence (P05177 whole entry): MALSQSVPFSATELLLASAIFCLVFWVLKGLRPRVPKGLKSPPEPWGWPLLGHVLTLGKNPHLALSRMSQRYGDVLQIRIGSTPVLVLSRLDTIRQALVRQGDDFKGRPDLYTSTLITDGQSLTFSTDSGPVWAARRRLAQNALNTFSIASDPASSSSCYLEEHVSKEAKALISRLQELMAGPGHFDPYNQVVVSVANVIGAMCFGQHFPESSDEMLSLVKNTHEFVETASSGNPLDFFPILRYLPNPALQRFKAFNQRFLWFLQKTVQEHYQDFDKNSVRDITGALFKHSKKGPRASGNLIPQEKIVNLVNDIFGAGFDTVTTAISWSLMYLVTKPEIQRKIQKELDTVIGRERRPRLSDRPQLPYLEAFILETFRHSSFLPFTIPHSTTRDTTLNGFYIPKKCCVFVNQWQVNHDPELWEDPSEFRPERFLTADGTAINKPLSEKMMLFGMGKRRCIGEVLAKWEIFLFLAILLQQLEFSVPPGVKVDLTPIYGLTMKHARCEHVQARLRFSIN
The experiment in a line: Inhibition of CYP1A2 (unknown origin). The class given is ADME.

A further series addresses T2, Cytochrome P450 2B6 (Homo sapiens, UniProt P20813).
T2 sequence (P20813 whole entry): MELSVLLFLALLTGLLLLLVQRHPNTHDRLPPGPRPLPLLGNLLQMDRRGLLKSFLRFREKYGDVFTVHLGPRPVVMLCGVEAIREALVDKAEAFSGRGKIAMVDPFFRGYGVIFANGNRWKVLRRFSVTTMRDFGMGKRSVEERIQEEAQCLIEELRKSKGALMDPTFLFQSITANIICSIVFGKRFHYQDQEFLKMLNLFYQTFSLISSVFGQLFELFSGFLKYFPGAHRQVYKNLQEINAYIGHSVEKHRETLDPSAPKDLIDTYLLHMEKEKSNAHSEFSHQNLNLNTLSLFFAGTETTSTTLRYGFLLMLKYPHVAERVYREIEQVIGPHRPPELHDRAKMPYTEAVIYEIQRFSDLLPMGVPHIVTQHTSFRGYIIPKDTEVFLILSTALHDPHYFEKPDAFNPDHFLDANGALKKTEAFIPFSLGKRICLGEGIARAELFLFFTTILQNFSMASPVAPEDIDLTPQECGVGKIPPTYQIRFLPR
The experiment in a line: Inhibition of CYP2B6 (unknown origin). The class given is ADME.

In a further series the target is Cytochrome P450 2D6 (Homo sapiens, UniProt P10635). The experiment in a line: Inhibition of CYP2D6 (unknown origin). It counts as ADME.
For series [7], the target named is Voltage-gated inwardly rectifying potassium channel KCNH2 (Homo sapiens, UniProt Q12809). The experiment in a line: Inhibition of human ERG. It counts as toxicity.
Series [8] has as its system Mycobacterium tuberculosis. The series is described as follows: Antimycobacterial activity against clinical isolate drug susceptible Mycobacterium tuberculosis H37Rv assessed as bacterial growth inhibition. It counts as functional.
The test system of series [9] is Mycobacterium tuberculosis. The series is described as follows: Antimycobacterial activity against Mycobacterium tuberculosis Erdman assessed as bacterial growth inhibition. The class given is functional.
The subject of series [10] is Mycobacterium tuberculosis. The series is described as follows: In vivo antimycobacterial activity against Mycobacterium tuberculosis Erdman infected mouse acute tuberculosis infection model assessed as reduction lung bacterial loads by measuring CFU at 10 to 100 mg/kg for 3 weeks at 5 days/week. The class given is functional, organism-based. To be noted: dose 10-100 mg/kg, DDE = dose-dependent effect.

Series [11] relates to Mycobacterium tuberculosis. The experiment in a line: In vivo antimycobacterial activity against Mycobacterium tuberculosis Erdman infected mouse acute tuberculosis infection model assessed as reduction in log10 CFU at 10 mg/kg for 3 weeks at 5 days/week relative to control. It counts as functional.
The test system of series [12] is Mycobacterium tuberculosis. The experiment in a line: In vivo antimycobacterial activity against Mycobacterium tuberculosis Erdman infected mouse chronic tuberculosis infection model assessed as reduction log10 CFU at 10 to 100 mg/kg for 4 weeks at 5 days/week administered after 31 days post infection relative to control. It counts as functional. Conditions: dose 10-100 mg/kg.

The target in series [13] is Voltage-dependent L-type calcium channel subunit alpha-1C (Homo sapiens, UniProt Q13936). The series is described as follows: Inhibition of human Cav1.2.
Series [14] is described as follows: Clearance in Sprague-Dawley rat at 1 mg/kg, iv. It counts as ADME, organism-based. Conditions: in vivo.
A short description of series [15]: Oral bioavailability in Sprague-Dawley rat at 4 mg/kg. It counts as ADME, organism-based. To be noted: in vivo.
The nature of series [16]: Clearance in Beagle dog at 0.5 mg/kg, iv. The class given is ADME, organism-based, Canis lupus familiaris. Conditions: in vivo.
A short description of series [17]: Volume of distribution in Beagle dog at 0.5 mg/kg, iv. The class given is ADME, organism-based, Canis lupus familiaris. Conditions: in vivo.
Series [18] can be described thus: AUC (0-last) in Beagle dog at 2 mg/kg, po. It counts as ADME, organism-based, Canis lupus familiaris. To be noted: in vivo.
The nature of series [19]: Mutagenicity in Salmonella typhimurium by Ames test. The class given is toxicity. Conditions: salmonella enterica subsp. enterica serovar typhimurium; route au.
Series [20] in a line: Drug distribution in Sprague-Dawley rat liver at 10 mg/kg, po administered as C14-lableled compound and assessed as radioactivity. It counts as ADME, organism-based. To be noted: in vivo.

Cytochrome P450 2D6, sequence (P10635 whole entry): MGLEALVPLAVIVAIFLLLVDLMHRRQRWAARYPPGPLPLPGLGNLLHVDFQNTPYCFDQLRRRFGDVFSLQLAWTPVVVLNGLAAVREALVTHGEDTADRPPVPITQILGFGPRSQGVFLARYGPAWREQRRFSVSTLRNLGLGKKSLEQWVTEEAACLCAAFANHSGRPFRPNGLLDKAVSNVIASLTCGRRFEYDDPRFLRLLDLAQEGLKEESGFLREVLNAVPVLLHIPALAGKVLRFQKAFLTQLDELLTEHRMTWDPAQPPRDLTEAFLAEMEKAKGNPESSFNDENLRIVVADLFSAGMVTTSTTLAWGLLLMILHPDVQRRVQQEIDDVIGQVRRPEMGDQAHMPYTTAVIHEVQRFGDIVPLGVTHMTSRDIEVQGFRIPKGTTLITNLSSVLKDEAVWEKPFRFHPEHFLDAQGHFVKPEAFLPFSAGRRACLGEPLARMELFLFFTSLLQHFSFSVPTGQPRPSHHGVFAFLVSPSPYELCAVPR
Voltage-dependent L-type calcium channel subunit alpha-1C, sequence (Q13936 whole entry): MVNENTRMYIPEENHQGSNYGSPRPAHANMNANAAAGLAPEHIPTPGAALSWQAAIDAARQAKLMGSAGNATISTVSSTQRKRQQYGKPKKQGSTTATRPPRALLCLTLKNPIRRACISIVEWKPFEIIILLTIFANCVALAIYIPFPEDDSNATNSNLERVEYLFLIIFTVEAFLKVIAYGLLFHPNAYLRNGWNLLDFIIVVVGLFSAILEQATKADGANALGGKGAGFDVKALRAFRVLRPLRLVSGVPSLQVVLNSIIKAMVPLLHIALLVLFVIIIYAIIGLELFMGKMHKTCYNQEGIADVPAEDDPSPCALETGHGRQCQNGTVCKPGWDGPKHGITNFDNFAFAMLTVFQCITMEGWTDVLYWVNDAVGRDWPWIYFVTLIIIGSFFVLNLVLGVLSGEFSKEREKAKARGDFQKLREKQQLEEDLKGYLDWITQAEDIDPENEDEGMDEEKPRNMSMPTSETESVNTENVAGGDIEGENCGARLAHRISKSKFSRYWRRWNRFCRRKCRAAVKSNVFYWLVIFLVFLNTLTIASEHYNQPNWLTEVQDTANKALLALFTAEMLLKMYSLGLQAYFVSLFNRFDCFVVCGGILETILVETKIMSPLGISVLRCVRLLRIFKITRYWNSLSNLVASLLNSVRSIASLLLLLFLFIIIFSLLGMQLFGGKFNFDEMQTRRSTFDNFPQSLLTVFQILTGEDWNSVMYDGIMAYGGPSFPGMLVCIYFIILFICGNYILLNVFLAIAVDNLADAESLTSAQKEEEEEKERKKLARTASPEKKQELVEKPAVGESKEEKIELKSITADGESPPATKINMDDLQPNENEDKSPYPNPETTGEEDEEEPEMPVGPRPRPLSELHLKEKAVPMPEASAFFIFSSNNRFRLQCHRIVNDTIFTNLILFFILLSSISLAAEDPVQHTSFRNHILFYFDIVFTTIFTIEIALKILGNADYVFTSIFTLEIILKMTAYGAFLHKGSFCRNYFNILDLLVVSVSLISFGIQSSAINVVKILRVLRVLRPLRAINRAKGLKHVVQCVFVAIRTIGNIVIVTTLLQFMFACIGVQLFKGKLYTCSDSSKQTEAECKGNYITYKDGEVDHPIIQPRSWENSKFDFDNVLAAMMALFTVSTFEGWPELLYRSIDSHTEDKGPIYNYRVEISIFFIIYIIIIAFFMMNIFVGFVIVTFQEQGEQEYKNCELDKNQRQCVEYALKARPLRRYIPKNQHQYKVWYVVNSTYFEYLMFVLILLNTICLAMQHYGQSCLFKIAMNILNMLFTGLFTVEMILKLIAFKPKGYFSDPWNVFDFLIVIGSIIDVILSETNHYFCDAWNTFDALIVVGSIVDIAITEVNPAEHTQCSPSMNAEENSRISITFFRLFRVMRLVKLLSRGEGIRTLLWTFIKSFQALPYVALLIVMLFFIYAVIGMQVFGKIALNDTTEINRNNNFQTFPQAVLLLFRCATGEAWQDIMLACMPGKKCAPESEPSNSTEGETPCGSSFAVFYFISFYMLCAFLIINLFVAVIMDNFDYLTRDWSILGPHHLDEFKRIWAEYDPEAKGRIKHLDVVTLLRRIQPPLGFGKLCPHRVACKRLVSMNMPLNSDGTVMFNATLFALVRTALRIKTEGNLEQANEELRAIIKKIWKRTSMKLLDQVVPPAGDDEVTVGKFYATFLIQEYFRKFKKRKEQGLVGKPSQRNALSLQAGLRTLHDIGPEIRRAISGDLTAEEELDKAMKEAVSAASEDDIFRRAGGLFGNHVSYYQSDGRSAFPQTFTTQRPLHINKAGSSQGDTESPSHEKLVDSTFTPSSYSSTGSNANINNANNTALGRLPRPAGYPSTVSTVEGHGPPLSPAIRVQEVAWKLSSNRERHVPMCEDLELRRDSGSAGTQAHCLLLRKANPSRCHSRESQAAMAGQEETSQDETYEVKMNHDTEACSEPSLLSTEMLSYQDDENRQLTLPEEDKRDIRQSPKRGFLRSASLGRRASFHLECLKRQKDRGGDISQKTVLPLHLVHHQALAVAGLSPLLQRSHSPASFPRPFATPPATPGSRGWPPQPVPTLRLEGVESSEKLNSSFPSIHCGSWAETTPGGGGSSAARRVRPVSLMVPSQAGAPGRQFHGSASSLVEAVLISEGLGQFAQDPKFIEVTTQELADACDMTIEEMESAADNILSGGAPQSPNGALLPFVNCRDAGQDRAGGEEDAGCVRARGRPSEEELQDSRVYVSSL
Voltage-gated inwardly rectifying potassium channel KCNH2, sequence (Q12809 whole entry): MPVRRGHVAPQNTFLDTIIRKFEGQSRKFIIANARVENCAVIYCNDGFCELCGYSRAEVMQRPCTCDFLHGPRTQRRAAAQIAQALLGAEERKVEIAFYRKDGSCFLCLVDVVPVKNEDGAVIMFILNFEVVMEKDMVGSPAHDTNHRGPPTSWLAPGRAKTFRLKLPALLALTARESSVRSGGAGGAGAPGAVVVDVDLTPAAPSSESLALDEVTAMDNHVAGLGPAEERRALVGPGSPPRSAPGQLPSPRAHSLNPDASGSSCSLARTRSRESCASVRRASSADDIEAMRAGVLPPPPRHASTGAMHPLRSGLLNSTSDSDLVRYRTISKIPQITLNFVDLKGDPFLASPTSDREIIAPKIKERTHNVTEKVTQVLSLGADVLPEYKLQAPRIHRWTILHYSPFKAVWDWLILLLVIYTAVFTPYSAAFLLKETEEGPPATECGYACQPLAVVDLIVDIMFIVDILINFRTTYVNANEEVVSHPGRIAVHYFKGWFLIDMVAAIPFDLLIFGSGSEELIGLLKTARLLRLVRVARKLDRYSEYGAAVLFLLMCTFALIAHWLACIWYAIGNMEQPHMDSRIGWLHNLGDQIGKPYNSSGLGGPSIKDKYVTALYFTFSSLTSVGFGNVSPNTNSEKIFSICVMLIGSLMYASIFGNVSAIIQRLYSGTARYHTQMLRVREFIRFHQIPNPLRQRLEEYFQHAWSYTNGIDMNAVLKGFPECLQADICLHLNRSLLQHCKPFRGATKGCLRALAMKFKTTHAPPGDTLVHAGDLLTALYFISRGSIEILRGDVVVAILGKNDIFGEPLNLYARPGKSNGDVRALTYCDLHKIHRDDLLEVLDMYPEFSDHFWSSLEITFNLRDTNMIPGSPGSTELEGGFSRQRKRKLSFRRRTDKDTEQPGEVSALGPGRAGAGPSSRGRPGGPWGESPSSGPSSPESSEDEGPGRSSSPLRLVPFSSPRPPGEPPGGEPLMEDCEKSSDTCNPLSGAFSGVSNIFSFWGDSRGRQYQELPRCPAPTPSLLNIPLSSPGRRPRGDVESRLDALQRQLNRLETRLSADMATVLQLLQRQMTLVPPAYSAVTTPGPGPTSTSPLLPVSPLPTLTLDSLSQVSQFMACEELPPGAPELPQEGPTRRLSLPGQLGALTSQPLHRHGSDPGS

On to `C[C@]1(CN2Cc3nc(-c4ccc(F)cc4)sc3C2)CN=C(N)O1`, for which the half-life came to 1.78 h in [1] and 1.13 h in series [2]. Also, the fraction unbound in [3] is 0.018; in [4], 0.055; in series [5], 0.036; in [6] it was 0.018. For the same molecule, the IC50 at Cytochrome P450 1A2 was over 100 µM; against Cytochrome P450 2B6, over 100 µM; on Cytochrome P450 2D6, 80.6 µM; in [7], over 13.3 µM; in series [13], over 13.3 µM. In addition, the MIC50 in series [8] is 0.012 µg/mL (≈ 0.0361 µM). For the same molecule, the MIC90 in series [8] stood at 0.03 µg/mL (≈ 0.0903 µM). In addition, the minimum inhibitory concentration (MIC) in series [9] stood at 0.109 µg/mL (≈ 0.328 µM). Besides, the Activity entry in series [10] is “Dde”; in series [11], 4 log10CFU; in series [12] it was 1 log10CFU; in series [19], “Non-Toxic”. In addition, the clearance came out at 24.6 mL/min/kg in [14] and 12 mL/min/kg in series [16]. This molecule gave a bioavailability in series [15] of 66.9%. This molecule gave a Vd in series [17] of 4.52 L/kg. This molecule displayed an AUClast in series [18] of 1910 ng·h. For the same molecule, in series [20], the Drug uptake entry is recorded as “Active”.
